# Source: patent US10159249B2 (BAYER CROPSCIENCE AKTIENGESELLSCHAFT, priority 2013, dated 2018)
# Like-named read-outs stand apart in the source and are kept apart here.
# Key:
# FMP22 (SEQ ID No 11) = FMP22 (SEQ ID No 11) (Rhodococcus jostii, UniProt A0ABU4CPN1); test: HPPD activity in presence of inhibitor, HGD assay; format: biochemical, Rhodococcus sp. (strain RHA1), isolate ro03041; details: 0.2 μM inhibitor
# Experimental: (§1) With the HGD assay HPPD activity was measured at room temperature by adding appropriate amounts of HPPD to a solution of 200 mM Tris-HCl pH 7.6, 10 mM ascorbate, 20 μM FeSO4, 650 units of catalase, 8 μg HGA dioxygenase (HGA: homogentisate) and 600 μM HPP in a total volume of 1 ml. Initial reaction rates were determined from the increase in absorbance at 318 nm due to the formation of maleylacetoacetate (ε318=11,900 M-1 cm-1).
# (§2) In cases, the symbol “>” is used this means that the value was far higher than the one indicated but could not be precisely calculated within in the range of concentration of inhibitor tested.
# (§3) In the 1st column of Table 1, the HPPD employed in the assay is named and in the 2nd column of Table 1, the corresponding SEQ ID No of present invention is disclosed.
# [1] = tested on: transgenic soybean T1 plants expressing PfHPPD-G336W; format: in vivo; details: for number of events, herbicide tolerance class 0 (41%-100% damaged leaf area) / number of events, herbicide tolerance class 1 (16%-40% damaged leaf area) / number of events, herbicide tolerance class 2 (6%-15% damaged leaf area) / number of events, herbicide tolerance class 3 (0%-5% damaged leaf area): scored after 21 days
# [2] = tested on: Ipomoea aristolochiaefolia; details: application at 6 leaf stage, assessment 14 days after application
# Euphorbia heterophylla = test: Field trial, weed efficacy, post applied; format: in vivo; details: application at 5 leaf stage, assessment 14 days after application
# wild type soybean Merlin = format: in vivo; details: scored after 21 days
# [3] = tested on: maize transgenic T0 events expressing PfHPPDEvo41; test: Greenhouse trial, maize T0 plants, leaf area damage; format: in vivo; details: for number of events, herbicide tolerance class 0 (41%-100% damaged leaf area) / number of events, herbicide tolerance class 1 (16%-40% damaged leaf area) / number of events, herbicide tolerance class 2 (6%-15% damaged leaf area) / number of events, herbicide tolerance class 3 (0%-5% damaged leaf area): maize PfHPPDEvo41, six days after application
# Experimental: (§4) Regenerated T0 events from tissue culture were transplanted into two inch square pots with synthetic soil (Fafard® Mix) and controlled-released fertilizer (Haifa Multicote™; polymer-coated controlled-release fertilizer, NPK Pro 18-6-12+Micronutrients) and cultivated in the greenhouse (GH) under supplementary high pressure sodium light for 12 days at a maximum of 30° C. during the day and a minimum of 22° C. at night. Fully recovered plants were transferred into five inch square pots filled with synthetic soil and control released fertilizer under the same environmental conditions. […] All herbicide treatments were conducted in a DeVries Tracker Sprayer system with standard application protocols, which are well known in the art. As a spray control T0 events have been sprayed with the adjunvant mixture lacking the herbicide.
# (§5) Table 2 summarizes results of transgenic maize plants expressing mutants of the Pseudomonas fluorescens HPPD protein comprising an E (Glu)->P (Pro) replacement at position 335, a G (Gly)->W (Trp) replacement at position 336, a K (Lys)->A (Ala) replacement at position 339 and an A (Ala)->Q (Gln) replacement at position 340 (named PfHPPDEvo41 and being disclosed under SEQ ID No:16 in PCT/US2013/59598 (WO2014/043435) and being disclosed in present application under SEQ ID No. 29), or a mutated sequence of the Pseudomonas (=Comamonas) testosteroni HPPD protein comprising a E (Glu)->P (Pro) replacement at position 351, a G (Gly)->W (Trp) replacement at position 352, a K (Lys)->A (Ala) replacement at position 355 and an A (Ala)->Q (Gln) replacement at position 356 (named Axmi428H-Evo41 and being disclosed under SEQ ID No 56 in PCT/US2013/59598 (WO2014/043435) and being disclosed in present application as the HPPD protein sequence under SEQ ID No 33) or a mutated sequence of the Pseudomonas agarici HPPD protein comprising a E (Glu)->P (Pro) replacement at position 335, a G (Gly)->W (Trp) replacement at position 336, a K (Lys)->A (Ala) replacement at position 339 and an A (Ala)->Q (Gln) replacement at position 340 (named Axmi309H-EVO41 and being disclosed under SEQ ID No 54 in PCT/US2013/59598 (WO2014/043435) and being disclosed in present application as the HPPD protein sequence under SEQ ID No 37).
# (§6) A rating of “1” was assigned to plants having a moderate tolerance with 16% to 40% damage of total leaf area. A rating of “2” was assigned to plants with good tolerance within the range of 6% to 15% damage of total leaf area.
# [4] = tested on: maize transgenic T0 events expressing Axmi428H-Evo41; test: as above; format: in vivo; details: for number of events, herbicide tolerance class 0 (41%-100% damaged leaf area) / number of events, herbicide tolerance class 1 (16%-40% damaged leaf area) / number of events, herbicide tolerance class 2 (6%-15% damaged leaf area) / number of events, herbicide tolerance class 3 (0%-5% damaged leaf area): maize Axmi428H-Evo41, six days after application
# Experimental: as §4, §5, §6
# [5] = tested on: Axmi309H-Evo41 (SEQ ID No 37); test: HPPD activity in presence of inhibitor, HGD assay; format: biochemical, Pseudomonas agarici
# Experimental: as §1, §2, §3
# Axmi309H (SEQ ID No 35) = test: HPPD activity in presence of inhibitor, HGD assay; format: biochemical, Pseudomonas agarici
# Experimental: as §1, §2, §3
# [6] = soybean Merlin (wt), 6.25 g AI/ha
# [7] = room temperature, 600 μM HPP, molar concentration
# FMP22 (SEQ ID No 11), sequence (A0ABU4CPN1 1-401): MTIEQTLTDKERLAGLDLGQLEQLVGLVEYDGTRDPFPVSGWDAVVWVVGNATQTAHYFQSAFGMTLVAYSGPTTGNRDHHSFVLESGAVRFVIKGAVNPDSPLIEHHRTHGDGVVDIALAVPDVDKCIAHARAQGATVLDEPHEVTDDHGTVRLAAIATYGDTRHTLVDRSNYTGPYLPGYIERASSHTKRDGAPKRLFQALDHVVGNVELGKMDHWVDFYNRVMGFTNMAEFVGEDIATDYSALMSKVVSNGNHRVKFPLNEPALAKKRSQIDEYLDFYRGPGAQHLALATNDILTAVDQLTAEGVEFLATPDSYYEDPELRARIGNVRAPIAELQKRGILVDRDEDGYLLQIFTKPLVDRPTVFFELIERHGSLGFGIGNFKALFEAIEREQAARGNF
compound,measurement,setting,value
CSc1c(C(F)(F)F)ccc(C(=O)Nc2nnnn2C)c1Cl,inhibition at 0.2 µM,FMP22 (SEQ ID No 11),0%
same,"number of events, herbicide tolerance class 0 (41%-100% damaged leaf area)",[1]; 6.25 g AI/ha,0
same,"number of events, herbicide tolerance class 1 (16%-40% damaged leaf area)",[1]; 6.25 g AI/ha,0
same,"number of events, herbicide tolerance class 2 (6%-15% damaged leaf area)",[1]; 6.25 g AI/ha,0
same,"number of events, herbicide tolerance class 3 (0%-5% damaged leaf area)",[1]; 6.25 g AI/ha,12
same,"number of events, herbicide tolerance class 0 (41%-100% damaged leaf area)",[1]; 25 g AI/ha,0
same,"number of events, herbicide tolerance class 1 (16%-40% damaged leaf area)",[1]; 25 g AI/ha,0
same,"number of events, herbicide tolerance class 2 (6%-15% damaged leaf area)",[1]; 25 g AI/ha,0
same,"number of events, herbicide tolerance class 3 (0%-5% damaged leaf area)",[1]; 25 g AI/ha,16
same,"number of events, herbicide tolerance class 0 (41%-100% damaged leaf area)",[1]; 50 g AI/ha,0
same,"number of events, herbicide tolerance class 1 (16%-40% damaged leaf area)",[1]; 50 g AI/ha,4
same,"number of events, herbicide tolerance class 2 (6%-15% damaged leaf area)",[1]; 50 g AI/ha,0
same,"number of events, herbicide tolerance class 3 (0%-5% damaged leaf area)",[1]; 50 g AI/ha,0
same,"number of events, herbicide tolerance class 0 (41%-100% damaged leaf area)",[1]; 75 g AI/ha,0
same,"number of events, herbicide tolerance class 1 (16%-40% damaged leaf area)",[1]; 75 g AI/ha,3
same,"number of events, herbicide tolerance class 2 (6%-15% damaged leaf area)",[1]; 75 g AI/ha,1
same,"number of events, herbicide tolerance class 3 (0%-5% damaged leaf area)",[1]; 75 g AI/ha,0
same,herbicide tolerance,[1]; in vivo,high tolerance
same,Efficacy (%) Ipomoea aristolochiaefolia,[2]; (A) 25 g ai/ha,10%
same,Efficacy (%) Ipomoea aristolochiaefolia,[2]; (A) 50 g ai/ha,15%
same,Efficacy (%) Euphorbia heterophylla,Euphorbia heterophylla; (A) 25 g ai/ha,15%
same,Efficacy (%) Euphorbia heterophylla,Euphorbia heterophylla; (A) 75 g ai/ha,35%
same,"number of events, herbicide tolerance class 0 (41%-100% damaged leaf area)",wild type soybean Merlin; [6],4
same,"number of events, herbicide tolerance class 1 (16%-40% damaged leaf area)",wild type soybean Merlin; [6],0
same,"number of events, herbicide tolerance class 2 (6%-15% damaged leaf area)",wild type soybean Merlin; [6],0
same,"number of events, herbicide tolerance class 3 (0%-5% damaged leaf area)",wild type soybean Merlin; [6],0
same,"number of events, herbicide tolerance class 0 (41%-100% damaged leaf area)","wild type soybean Merlin; soybean Merlin, 25 g AI/ha",4
same,"number of events, herbicide tolerance class 1 (16%-40% damaged leaf area)","wild type soybean Merlin; soybean Merlin, 25 g AI/ha",0
same,"number of events, herbicide tolerance class 2 (6%-15% damaged leaf area)","wild type soybean Merlin; soybean Merlin, 25 g AI/ha",0
same,"number of events, herbicide tolerance class 3 (0%-5% damaged leaf area)","wild type soybean Merlin; soybean Merlin, 25 g AI/ha",0
same,share of tested events with high tolerance (5% or less bleached leaf area),"[3]; maize PfHPPDEvo41 (n=21), 100 g AI/ha",~70%
same,"number of events, herbicide tolerance class 0 (41%-100% damaged leaf area)",[3]; 25 g AI/ha,6
same,"number of events, herbicide tolerance class 1 (16%-40% damaged leaf area)",[3]; 25 g AI/ha,0
same,"number of events, herbicide tolerance class 2 (6%-15% damaged leaf area)",[3]; 25 g AI/ha,1
same,"number of events, herbicide tolerance class 3 (0%-5% damaged leaf area)",[3]; 25 g AI/ha,28
same,"number of events, herbicide tolerance class 0 (41%-100% damaged leaf area)",[3]; 50 g AI/ha,1
same,"number of events, herbicide tolerance class 1 (16%-40% damaged leaf area)",[3]; 50 g AI/ha,0
same,"number of events, herbicide tolerance class 2 (6%-15% damaged leaf area)",[3]; 50 g AI/ha,2
same,"number of events, herbicide tolerance class 3 (0%-5% damaged leaf area)",[3]; 50 g AI/ha,28
same,"number of events, herbicide tolerance class 0 (41%-100% damaged leaf area)",[3]; 100 g AI/ha,4
same,"number of events, herbicide tolerance class 1 (16%-40% damaged leaf area)",[3]; 100 g AI/ha,0
same,"number of events, herbicide tolerance class 2 (6%-15% damaged leaf area)",[3]; 100 g AI/ha,2
same,"number of events, herbicide tolerance class 3 (0%-5% damaged leaf area)",[3]; 100 g AI/ha,15
same,share of tested events with high tolerance (5% or less bleached leaf area),"[4]; maize Axmi428H-Evo41 (n=29), 100 g AI/ha",~70%
same,"number of events, herbicide tolerance class 0 (41%-100% damaged leaf area)",[4]; 50 g AI/ha,0
same,"number of events, herbicide tolerance class 1 (16%-40% damaged leaf area)",[4]; 50 g AI/ha,0
same,"number of events, herbicide tolerance class 2 (6%-15% damaged leaf area)",[4]; 50 g AI/ha,0
same,"number of events, herbicide tolerance class 3 (0%-5% damaged leaf area)",[4]; 50 g AI/ha,7
same,"number of events, herbicide tolerance class 0 (41%-100% damaged leaf area)",[4]; 100 g AI/ha,3
same,"number of events, herbicide tolerance class 1 (16%-40% damaged leaf area)",[4]; 100 g AI/ha,4
same,"number of events, herbicide tolerance class 2 (6%-15% damaged leaf area)",[4]; 100 g AI/ha,1
same,"number of events, herbicide tolerance class 3 (0%-5% damaged leaf area)",[4]; 100 g AI/ha,21
same,% inhibition at 0.2 μM,[5]; 0.2 μM inhibitor,26%
same,pI50,[5]; [7],6.5
same,% inhibition at 0.2 μM,Axmi309H (SEQ ID No 35); 0.2 μM inhibitor,78%
same,pI50,Axmi309H (SEQ ID No 35); [7],7.1
